Results published in US11918553B2, “Anti-oncogenic phytochemicals comprising substituted henicosanoic acid and henicosenoic acid” (Ostentus Therapeutics, Inc., priority 2022, dated 2024).

Columns and labels:
Experiment in all cases: Apoptosis flow cytometry assay of HPLC fractions and synthesized compounds
MV-4-11 cells = format: cell-based, human
Procedure: Apoptosis flow cytometry assays were performed essentially as described in Example 3. In one series of experiments, cultures MV-4-11 cells were grown to an appropriate density and approximately 20,000 cells/100 μL were seeded into wells of 96-well cell culture microplate. For each fraction, either 0.5 μL/mL of a fraction or 1 μL/mL of a fraction was then added to transferred cells for each cell line and incubated for 24 hours at 37° C. in 5% CO2 incubator. […] Cells were then assessed for apoptosis by an apoptosis flow cytometry assay employing with a fluorochrome-conjugated Annexin V and/or the fluorescent nucleic acid dye 4,6-diamidino-2-phenylindole (DAPI) (APC Annexin V, BD Bioscience, CA) following protocols provided by the manufacture. […] Aliquots were then incubated in the dark for 15 minutes with either 1) an Annexin-V-APC conjugate and DAPI, 1) an Annexin-V-APC conjugate; or 3) DAPI. An unstained aliquot was also set up as a negative control to define the basal level of apoptotic and dead cells. The percentage of cells that have been induced to undergo apoptosis is then determined by subtracting the percentage of apoptotic cells in the unstained aliquot from percentage of apoptotic cells in the stained aliquot. After staining, cells were washed in ice-cold PBS and resuspended in 300 μL of the Annexin V buffered solution, and analysis by flow cytometry using an LSR II flow cytometer (BD Bioscience, CA). […] Mean cell numbers between the OST-01 treated and control group was statistically analyzed by using unpaired, two-tailed Student's t test, with values from at least two independent experiments with triplicate determination. […]
Raw data obtained from these analyses were searched against a natural product databases, a flavonoid database, and other chemspider databases centered to plant natural products for putative identification. IN addition, based on the most abundant precursor ions detected in DI-MS, compounds were manually searched to assign putative identify of the abundant compounds. […]

HL-60 cells = format: cell-based, human; details: HL-60, highest amount tested (50 μM)
THP-1 cells = format: cell-based; details: THP-1, highest amount tested (200 μM), relative to ethanol or DMSO negative controls (FIG. 26B)

Row | SMILES | increase in DAPI positive cells (MV-4-11 cells; MV-4-11, up to 30 μM, relative to ethanol negative control, decline at higher concentrations (FIG. 28A)) [fold] | increase in DAPI positive cells (HL-60 cells; relative to ethanol negative control (FIG. 28B)) | increase in Annexin V positive cells (HL-60 cells; relative to ethanol or DMSO negative controls (FIG. 27B)) | increase in Annexin V positive cells (THP-1 cells) [%] | increase in Annexin V positive cells (MV-4-11 cells; MV-4-11, highest amount tested (50 μM), relative to ethanol negative control (FIG. 27A)) | increase in Annexin V positive cells (MV-4-11 cells; MV-4-11, highest amount tested (200 μM), relative to ethanol or DMSO negative controls (FIG. 26A)) [%]
1 | O=C(O)CCCCCCCCCCCCCCCCCCCCO | ≥ 8 | over 4 fold | over 1.5 fold | – | – | –
2 | O=C(O)/C=C/CCCCCCCCCCCCCCCCCCO [(2E)-21-Hydroxy-2-henicosenoic acid] | – | – | – | ≥ 50 | over 2 fold | ≥ 55
